The text below walks through data of the supplement of paper PMC10307832.

Holding throughout (assay): relative viability (nuclei count vs DMSO), 5 days (fraction); higher = more cells survive
Compound in assay [1]: Cc1ccc2nc(NCCN)c3ncc(C)n3c2c1 + CC(=O)c1c(C)c2cnc(Nc3ccc(N4CCNCC4)cn3)nc2n(C2CCCC2)c1=O [Palbociclib] (partner 0.5 µM)
Summed up:
(§1)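 Lung cancer cell lines in 1536-well plates got either a single drug or a fixed anchor-drug dose together with five library-drug doses (not always all listed) in √10 steps, by pin tool, on the day after seeding. Nuclei were counted after 5 days, and relative viability is the treated-to-vehicle ratio of nuclei counts. Values are medians of duplicate plates.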

Compound in assay [2]: Cc1ccc2nc(NCCN)c3ncc(C)n3c2c1 + C[C@]1(O)C[C@@H](c2nc(-c3ccc4ccc(-c5ccccc5)nc4c3)c3c(N)nccn32)C1 [Linsitinib] (partner 1 µM)
A digest of the protocol:
as §1

Compound in assay [3]: Cc1ccc2nc(NCCN)c3ncc(C)n3c2c1 + CC(=O)Nc1cccc(-n2c(=O)n(C3CC3)c(=O)c3c(Nc4ccc(I)cc4F)n(C)c(=O)c(C)c32)c1 [Trametinib] (partner 0.02 µM)
A digest of the protocol: as §1

Compound in assay [4]: Cc1ccc2nc(NCCN)c3ncc(C)n3c2c1 + CC1(C)CCC(c2ccc(Cl)cc2)=C(CN2CCN(c3ccc(C(=O)NS(=O)(=O)c4ccc(N[C@H](CCN5CCOCC5)CSc5ccccc5)c(S(=O)(=O)C(F)(F)F)c4)cc3)CC2)C1 [Navitoclax] (partner 0.5 µM)
A digest of the protocol:
as §1

With NCI-H520, the relative viability in assay [1] (first compound 0.04 µM) turned out to be 0.233; in assay [1] (first compound 0.1265 µM) it was 0.222; in assay [1] (first compound 0.4 µM), 0.215; in assay [1] (first compound 1.265 µM), 0.212; in assay [1] (first compound 4 µM) it was 0.243; in assay [2] (first compound 0.04 µM), 0.997. The relative viability in assay [2] (first compound 0.1265 µM) came out at 1.15; in assay [2] (first compound 0.4 µM), 0.947; in assay [2] (first compound 1.265 µM) it was 0.884; in assay [2] (first compound 4 µM), 0.853; in assay [3] (first compound 0.04 µM), 0.75; in assay [3] (first compound 0.1265 µM) it was 0.658. Besides, the relative viability came out at 0.753 in assay [3] (first compound 0.4 µM); 0.677 in assay [3] (first compound 1.265 µM); 0.621 in assay [3] (first compound 4 µM); 1.19 in assay [4] (first compound 0.04 µM); 1.09 in assay [4] (first compound 0.1265 µM); 1.12 in assay [4] (first compound 0.4 µM). The relative viability in assay [4] (first compound 1.265 µM) was 1.1; in assay [4] (first compound 4 µM), 0.953.
For the cell line NCI-H1666, the relative viability stood at 0.664 in assay [1] (first compound 0.04 µM); 0.675 in assay [1] (first compound 0.1265 µM); 0.598 in assay [1] (first compound 0.4 µM); 0.611 in assay [1] (first compound 1.265 µM); 0.665 in assay [1] (first compound 4 µM); 0.909 in assay [2] (first compound 0.04 µM). The relative viability in assay [2] (first compound 0.1265 µM) stood at 0.843; in assay [2] (first compound 0.4 µM) it was 0.942; in assay [2] (first compound 1.265 µM) it was 0.822; in assay [2] (first compound 4 µM), 0.71; in assay [3] (first compound 0.04 µM), 0.907; in assay [3] (first compound 0.1265 µM) it was 0.796. The relative viability worked out at 0.773 in assay [3] (first compound 0.4 µM); 0.863 in assay [3] (first compound 1.265 µM); 0.8 in assay [3] (first compound 4 µM); 0.886 in assay [4] (first compound 0.04 µM); 0.922 in assay [4] (first compound 0.1265 µM); 0.96 in assay [4] (first compound 0.4 µM). The relative viability in assay [4] (first compound 1.265 µM) worked out at 0.89; in assay [4] (first compound 4 µM) it was 0.776.
For the cell line NCI-H1993, the relative viability in assay [1] (first compound 0.04 µM) was 0.627; in assay [1] (first compound 0.1265 µM) it was 0.559; in assay [1] (first compound 0.4 µM) it was 0.532; in assay [1] (first compound 1.265 µM) it was 0.501; in assay [1] (first compound 4 µM) it was 0.596; in assay [2] (first compound 0.04 µM) it was 0.726. Also, the relative viability in assay [2] (first compound 0.1265 µM) is 0.763; in assay [2] (first compound 0.4 µM), 0.673; in assay [2] (first compound 1.265 µM) it was 0.75; in assay [2] (first compound 4 µM), 0.73; in assay [3] (first compound 0.04 µM), 0.421; in assay [3] (first compound 0.1265 µM), 0.632. For the same cell line, the relative viability in assay [3] (first compound 0.4 µM) turned out to be 0.64; in assay [3] (first compound 1.265 µM), 0.34; in assay [3] (first compound 4 µM), 0.46; in assay [4] (first compound 0.04 µM), 0.799; in assay [4] (first compound 0.1265 µM), 0.782; in assay [4] (first compound 0.4 µM), 0.676. Moreover, the values for the relative viability in assay [4] (first compound 1.265 µM) and in assay [4] (first compound 4 µM) were 0.752 and 0.692, respectively.
Take NCI-H1975: the relative viability was 0.626 in assay [1] (first compound 0.04 µM); 0.583 in assay [1] (first compound 0.1265 µM); 0.647 in assay [1] (first compound 0.4 µM); 0.611 in assay [1] (first compound 1.265 µM); 0.517 in assay [1] (first compound 4 µM); 0.972 in assay [2] (first compound 0.04 µM). Also, the relative viability turned out to be 0.93 in assay [2] (first compound 0.1265 µM); 0.91 in assay [2] (first compound 0.4 µM); 0.897 in assay [2] (first compound 1.265 µM); 0.893 in assay [2] (first compound 4 µM); 0.329 in assay [3] (first compound 0.04 µM); 0.376 in assay [3] (first compound 0.1265 µM). Further, the relative viability in assay [3] (first compound 0.4 µM) came out at 0.369; in assay [3] (first compound 1.265 µM), 0.329; in assay [3] (first compound 4 µM), 0.321; in assay [4] (first compound 0.04 µM), 1.06; in assay [4] (first compound 0.1265 µM), 1.12; in assay [4] (first compound 0.4 µM), 1.08. Besides, the relative viability in assay [4] (first compound 1.265 µM) came out at 0.952; in assay [4] (first compound 4 µM), 0.863.
With HCC-44, the relative viability in assay [1] (first compound 0.04 µM) amounted to 0.934; in assay [1] (first compound 0.1265 µM), 0.94; in assay [1] (first compound 0.4 µM), 0.914; in assay [1] (first compound 1.265 µM), 0.894; in assay [1] (first compound 4 µM), 0.99; in assay [2] (first compound 0.04 µM), 0.869. The relative viability in assay [2] (first compound 0.1265 µM) came out at 0.632; in assay [2] (first compound 0.4 µM), 0.652; in assay [2] (first compound 1.265 µM) it was 0.625; in assay [2] (first compound 4 µM), 0.69; in assay [3] (first compound 0.04 µM) it was 1.11; in assay [3] (first compound 0.1265 µM), 0.971. Further, the relative viability in assay [3] (first compound 0.4 µM) was determined as 1.03; in assay [3] (first compound 1.265 µM) it was 1.1; in assay [3] (first compound 4 µM), 1.01; in assay [4] (first compound 0.04 µM), 1.1; in assay [4] (first compound 0.1265 µM) it was 0.901; in assay [4] (first compound 0.4 µM), 0.951. Further, the relative viability turned out to be 0.829 in assay [4] (first compound 1.265 µM) and 0.937 in assay [4] (first compound 4 µM).
